In patent publication US11351218B2, “Composition for preventing or treating glioblastoma comprising Platycodon grandiflorum A. De Candolle, Scutellaria baicalensis, Phellodendron amurense Ruprecht or Rubus coreanus” (University-Industry Cooperation Group of Kyung Hee …, priority 2019, dated 2022):

How the values were obtained:
LC3B and SQSTM1/p62 = assay: Immunoblot of autophagy-related proteins (LC3B, SQSTM1/p62) in U373MG cells; assay type: cell-based, human; details: 50 μM pre-incubation 30 minutes, then PD 10 μM 24 hours
Description: The effects of 26 kinds of herbal medicines, which influence the expression of autophagy-related proteins (LC3B and SQSTM1/p62) in total cell lysates from U87MG and U373MG cells, […] GAPDH was used as a loading control.
The human glioma cell lines, U87MG and U373MG, were cultured respectively in RPMI-1640 (Welgene) and DMEM (Welgene, Daegu, Korea) supplemented with 10% fetal bovine serum (FBS, JR Scientific) and 1% antibiotics (Ab, Welgene). All cultures were maintained at 37° C. in a humidified incubator containing 5% CO2.
(§1) Cells treated with the concentrations and materials described in FIGS. 1-3B, 7, 8, 10, 13, 16, 18, and 20 were lysed in buffer containing 20 mM Tris-HCl (pH 7.5), 150 mM NaCl, 1 mM EDTA, 1 mM Na2EDTA, 1 mM EGTA, 1% NP-40, 1% sodium deoxycholate, 1 mM Na3VO4, 1 mM MPI, 1 mM PMSF, and PI cocktails for 15 to 20 minutes on ice. Cell lysates were separated by SDS-PAGE and transferred to nitrocellulose membranes. […] The protein bands were detected with ECL western Blotting Substrate (Thermo Fisher Scientific, Waltham, Mass., USA).
To discover novel autophagy inhibitors, 26 herbal medicines were screened by western blot analysis. […] Therefore, the effect of each herbal medicine on the change in the p62 level was evaluated, given that a rise in the amount of p62 is related to the inhibition of autophaic flux.

p-ERK = assay: Immunoblot of ERK phosphorylation, U373MG cells; assay type: cell-based, human; details: 50 μM pre-incubation 30 minutes, then PD 10 μM 24 hours
Description: FIGS. 10A to 10D show the results that PD-mediated autophagy inhibition is independent of mTOR and MAPK signaling pathways. FIGS. 10A to 10C show the results in which cells were treated with PD (0 μM, 0.5 μM, 1 μM, 5 μM, and 10 μM) for 24 hours. The immunoblot analyses for p-ULK1 (Ser757), ULK1, p-S6K (Thr389), p-AKT (Ser473), ERK2, P-ERK, p-JNK1, Beclin, and ATG7 were performed using lysates from GBMs. […] Total protein extracts were analyzed by immunoblot analyses for p-ERK, LC3B, and SQSTM1. GAPDH was used as an internal control.
as §1
Previous studies have shown that PD enhances autophagy via mTOR/MAPK pathway. […] It is known that mTORC1 activation, measured by S6K phosphorylation, inhibits autophagy initiation by phosphorylating the ULK1 (Ser 757). […]

## COc1cccc(-c2cc(=O)c3ccccc3o2)c1N [PD98095, reference compound]
LC3B and SQSTM1/p62
  levels of LC3B-II and p62: did not alter
p-ERK
  phosphorylation of ERK: effectively inhibited
